Assays:
[1] = target: T1, human A1AR (Homo sapiens, UniProt P30542); experiment: Radioligand binding, human A1AR ([3H]DPCPX, transfected CHO cells); details: displacement of [3H]DPCPX, n=3, racemic mixtures
T1 construct: expressed in transfected cells; host or cells: CHO
T1 sequence (P30542 1-326): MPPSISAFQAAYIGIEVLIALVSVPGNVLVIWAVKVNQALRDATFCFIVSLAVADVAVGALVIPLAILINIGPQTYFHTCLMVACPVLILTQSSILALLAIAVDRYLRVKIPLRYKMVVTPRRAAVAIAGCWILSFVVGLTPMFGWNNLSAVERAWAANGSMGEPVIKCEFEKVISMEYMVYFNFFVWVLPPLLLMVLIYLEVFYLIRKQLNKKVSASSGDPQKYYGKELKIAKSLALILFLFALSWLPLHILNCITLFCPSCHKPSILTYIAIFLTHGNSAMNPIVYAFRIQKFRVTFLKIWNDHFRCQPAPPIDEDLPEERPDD
Protocol: (§1) The affinity and selectivity profiles of the ligands obtained was studied in vitro, radioligand binding assays, at the four human specific ARs subtypes, using experimental protocols previously described.[28–30] All ligands were prepared and tested as racemic mixtures. […] Non-specific binding was determined in the presence of R-PIA 10 µM for A1AR, NECA 50 µM for A2AAR, NECA 400 μΜ for A2BAR and R-PIA 100 μΜ for A3AR.

[2] = tested on: breast cancer TILs against autologous tumor cells; experiment: Chromium (51Cr) release cytotoxicity assay, breast cancer TILs; assay type: cell-based, human; details: synthetic ADO, 48 hours
Protocol: (§2) Chromium (51Cr) release cytotoxicity assay
(§3) Chromium (51Cr) release assay was used to measure the autologous TILs-mediated cytotoxicity against the established patient-derived breast and […] cell lines. Briefly, breast and sarcoma tumor cells were labelled with 51Cr (PerkinElmer) as target cells and seeded on 96-well V-bottom plate (Corning) at 5 000cells/well. Effector TILs were added at the indicated Effector: Target (E:T) ratios. The supernatants were collected carefully into LUMA plates (PerkinElmer) after 24 and 48 hours of co-culture. After drying overnight, radioactivity of the plate was read with MicroBeta2 (PerkinElmer).
(§4) Relative adenosine production assay
(§5) An ectonucleotidase CD73 assay was optimized to measure the relative ADO production based on competitive AMP blockade and presence of CD73+ cells. Day five patient-derived sarcoma spheroids were digested and split into triplicates in X-VIVO20 and 1% PS culture media with an excessive amount of AMP at 0.4mM (Sigma-Aldrich) incubated for 30 minutes.
(§6) After 1500 RPM was applied for three minutes, 25 μL supernatant were removed and mixed with 25 μL of 200 μM ATP (Sigma-Aldrich) in the same media. 25 μL of this mixture was added to a white opaque OptiPlate (PerkinElmer) containing 25 μL Cell-Titer Glo reagent (Promega, US). Relative luminescence unit (RLU) can be read on SPARK 10M plate reader with an integration time of 100ms. […]

[3] = target: T2, hA2B (A2BAR) (Homo sapiens, UniProt P29275); experiment: cAMP assay, NECA-stimulated, HEK-293 cells with transfected A2BAR; assay type: cell-based; details: n=3, read-out: Kb hA2B (cAMP production)
T2 construct: expressed in transfected cells; host or cells: HEK-293
T2 sequence (P29275 1-332): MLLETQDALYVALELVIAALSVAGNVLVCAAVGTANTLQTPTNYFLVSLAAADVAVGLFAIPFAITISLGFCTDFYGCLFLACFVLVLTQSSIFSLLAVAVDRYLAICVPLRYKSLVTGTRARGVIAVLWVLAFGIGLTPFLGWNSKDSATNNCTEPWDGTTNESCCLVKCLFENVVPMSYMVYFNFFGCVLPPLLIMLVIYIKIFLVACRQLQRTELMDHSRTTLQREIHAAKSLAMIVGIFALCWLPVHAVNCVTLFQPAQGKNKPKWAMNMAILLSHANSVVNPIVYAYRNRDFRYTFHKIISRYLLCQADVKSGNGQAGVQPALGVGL
Protocol: Assays were performed in transfected A2BAR using a cyclic AMP (cAMP) enzyme immunoassay kit (Amersham Biosciences) following previously described protocols.[28 30] HEK-293 cells were seeded (10,000 cells/well) in 96-well culture plates and incubated at 37°C in an atmosphere with 5% CO2 in Eagle’s Medium Nutrient Mixture F-12 (EMEM F-12), containing 10% fetal calf serum (FCS) and 1% L-Glutamine. Cells were washed three times with 200 µL assay medium (EMEM-F12 and 25 mM HEPES pH=7.4) and pre-incubated with assay medium containing 30 µM rolipram and test compounds at 37°C for 15 min. Ten µM NECA was incubated for 15 min at 37°C (total incubation time 30 min). Reaction was stopped with lysis buffer supplied in the kit and the enzyme immunoassay was carried out for detection of intracellular cAMP at 450 nm in an Ultra Evolution detector (Tecan). The dose-response curve of NECA-elicited cAMP formation was used to determine the initial choice of A2BAR antagonist concentration (online supplemental figure 2).

[4] = tested on: healthy donor T cells (PBMCs) and NK cells; experiment: CFSE proliferation assay with exogenous adenosine; assay type: cell-based, human; details: higher concentration further restoring proliferation, data not shown
[5] = target: T3, human A2BAR (Homo sapiens, UniProt P29275); experiment: Radioligand binding, human A2BAR ([3H]DPCPX, transfected HEK-293 cells); details: displacement of [3H]DPCPX, human HEK-293 cells, n=3, racemic mixtures; read-out: Ki hA2B
T3 construct: expressed in transfected cells; host or cells: HEK-293
T3 sequence (P29275 1-332): T2 sequence (P29275 1-332)
Protocol: as §1

[6] = tested on: sarcoma TILs against autologous tumor cells; experiment: Chromium (51Cr) release cytotoxicity assay, sarcoma TILs; assay type: cell-based, human; details: synthetic ADO, 24 hours
Protocol: as §2, §3, §4, §5, §6

Row | SMILES | Ki hA1 ([1]; human CHO cells) | Rescue of killing of breast cancer TILs against autologous tumor cells [2] | Kb [3] [nM] | Dose dependence of the proliferation rescue on T and NK cells [4] | Ki [5] [nM] | Ki ([1]; transfected CHO cells, read-out: Ki hA1) [nM] | Rescue of killing in sarcoma TILs against autologous tumor cells [6]
1 | CC1=C(C(=O)OC(C)C)C(c2ccoc2)n2c(nc3cc(Cl)ccc32)N1 (stereo not drawn) [ISAM-M89A] | devoid of affinity | rescued killing | – | – | – | – | –
2 | CC1=C(C(=O)OC(C)C)C(c2ccco2)n2c(nc3ccccc32)N1 (stereo not drawn) [ISAM-140, isopropyl 4-(furan-2-yl)−2-methyl-1,4-dihydrobenzo[4 5] imidazo[1,2 a]pyrimidine-3-carboxylate] | – | – | 27 | dose-dependent | – | – | –
3 | CC1=C(C(=O)OC(C)C)C(c2ccco2)n2c(nc3ccccc32)N1Cc1ccccc1F (stereo not drawn) [ISAM-R56A] | – | rescued killing | 6.15 | – | 1.5 | > 1000 | also rescued killing
